Experimental data taken from ChEMBL document CHEMBL3228010, “Potential antitumor agents. 29. Quantitative structure-activity relationships for the antileukemic bisquaternary ammonium heterocycles” (J Med Chem, 1979).

Legend:
Mus musculus = assay: Toxicity in ip dosed C3H X DBA2 F1 hybrid mouse […] with mouse L1210 cells on day 0 and dosed once daily on days 1 to 5 measured after 50 days; format: organism-based; details: in vivo, 1200 h
L1210 = assay: Antitumor activity against mouse L1210 cells […] in ip dosed C3H X DBA2 F1 hybrid mouse on day 0 and dosed at LD10 level once daily on days 1 to 5 assessed as increase in life span relative to control; format: functional
[1] = Lipophilic-hydrophilic balance, Rm of the compound by partition chromatography; format: physicochemical

SMILES	LD10 (Mus musculus) [mg/kg]	log(ILSmax) (L1210)	Rm [1]
CC[n+]1ccccc1-c1ccc(NC(=O)c2ccc(C(=O)Nc3ccc(-c4cccc[n+]4CC)cc3)cc2)cc1.Cc1ccc(S(=O)(=O)[O-])cc1.Cc1ccc(S(=O)(=O)[O-])cc1	10	<1.4	0.26
C[n+]1cccc2cc(NC(=O)COc3ccc(C(=O)Nc4ccc5c(ccc[n+]5C)c4)cc3)ccc21.Cc1ccc(S(=O)(=O)[O-])cc1.Cc1ccc(S(=O)(=O)[O-])cc1	0.6	<1.4	-0.3
C[n+]1cccc2cc(NC(=O)c3ccc(C(=O)Nc4ccc5c(ccc[n+]5C)c4)cc3)ccc21.Cc1ccc(S(=O)(=O)[O-])cc1.Cc1ccc(S(=O)(=O)[O-])cc1	5	<1.4	-0.21
CC[n+]1cccc2cc(NC(=O)CCc3ccc(C(=O)Nc4ccc5c(ccc[n+]5CC)c4)cc3)ccc21.Cc1ccc(S(=O)(=O)[O-])cc1.Cc1ccc(S(=O)(=O)[O-])cc1	1.6	<1.4	1.1
CCC[n+]1ccc(Nc2ccc(NC(=O)c3ccc(Nc4cc[n+](CCC)c5ccccc45)cc3)cc2N)cc1.[I-].[I-]	4.4	1.43	0.76
CC[n+]1cccc2cc(NC(=O)c3ccc(C(=O)Nc4ccc5c(ccc[n+]5CC)c4)c(N)c3)ccc21.Cc1ccc(S(=O)(=O)[O-])cc1.Cc1ccc(S(=O)(=O)[O-])cc1	6	<1.4	-0.01
CCC[n+]1cccc2cc(NC(=O)CCc3ccc(C(=O)Nc4ccc5c(ccc[n+]5CCC)c4)cc3)ccc21.Cc1ccc(S(=O)(=O)[O-])cc1.Cc1ccc(S(=O)(=O)[O-])cc1	2	<1.4	1.25
CCC[n+]1ccccc1Nc1ccc(NC(=O)c2ccc(C(=O)Nc3ccc(Nc4cccc[n+]4CCC)cc3)cc2)cc1.Cc1ccc(S(=O)(=O)[O-])cc1.Cc1ccc(S(=O)(=O)[O-])cc1	100	<1.4	0.71
CC[n+]1ccccc1Nc1ccc(NC(=O)c2ccc(C(=O)Nc3ccc(Nc4cccc[n+]4CC)cc3)cc2)cc1.[I-].[I-]	16	<1.4	0.53
CCC[n+]1cccc(NC(=O)c2ccc(NC(=O)c3ccc(C(=O)Nc4ccc(C(=O)Nc5ccc[n+](CCC)c5)cc4)c(C)c3)cc2)c1.Cc1ccc(S(=O)(=O)[O-])cc1.Cc1ccc(S(=O)(=O)[O-])cc1	30	<1.4	0.75
CCC[n+]1cccc(NC(=O)c2ccc(NC(=O)c3ccc(C(=O)Nc4ccc(C(=O)Nc5ccc[n+](CCC)c5)cc4)c(N)c3)cc2)c1.Cc1ccc(S(=O)(=O)[O-])cc1.Cc1ccc(S(=O)(=O)[O-])cc1	47	<1.4	0.2
CC[n+]1cccc(NC(=O)c2ccc(NC(=O)c3ccc(C(=O)Nc4ccc(C(=O)Nc5ccc[n+](CC)c5)cc4C)cc3)c(C)c2)c1.Cc1ccc(S(=O)(=O)[O-])cc1.Cc1ccc(S(=O)(=O)[O-])cc1	18	<1.4	0.47
C[n+]1ccccc1NC(=O)c1ccc(NC(=O)c2ccc(C(=O)Nc3ccc(C(=O)Nc4cccc[n+]4C)cc3)cc2)cc1.Cc1ccc(S(=O)(=O)[O-])cc1.Cc1ccc(S(=O)(=O)[O-])cc1	7	<1.4	0.11
CC[n+]1cccc2cc(NC(=O)c3ccc(NC(=O)c4ccc5c(ccc[n+]5CC)c4)cc3)ccc21.Cc1ccc(S(=O)(=O)[O-])cc1.Cc1ccc(S(=O)(=O)[O-])cc1	4	<1.4	0.02
CCC[n+]1cccc(NC(=O)c2ccc(NC(=O)c3ccc(C(=O)Nc4ccc(C(=O)Nc5ccc[n+](CCC)c5)cc4)c(Cl)c3)cc2)c1.Cc1ccc(S(=O)(=O)[O-])cc1.Cc1ccc(S(=O)(=O)[O-])cc1	40	<1.4	0.75
CC[n+]1ccc(Nc2ccc(NC(=O)c3ccc(Nc4cc[n+](CC)c5ccccc45)cc3N)cc2N)cc1.[I-].[I-]	20	<1.4	0.35
CCCC[n+]1cccc2cc(NC(=O)Cc3ccc(CC(=O)Nc4ccc5c(ccc[n+]5CCCC)c4)cc3)ccc21.Cc1ccc(S(=O)(=O)[O-])cc1.Cc1ccc(S(=O)(=O)[O-])cc1			0.92
C[n+]1cccc2cc(NC(=O)/C=C/c3ccc(C(=O)Nc4ccc5c(ccc[n+]5C)c4)cc3)ccc21.Cc1ccc(S(=O)(=O)[O-])cc1.Cc1ccc(S(=O)(=O)[O-])cc1	3	<1.4	-0.2
C[n+]1ccccc1-c1ccc(NC(=O)c2ccc(C(=O)Nc3ccc(-c4cccc[n+]4C)cc3)cc2)cc1.Cc1ccc(S(=O)(=O)[O-])cc1.Cc1ccc(S(=O)(=O)[O-])cc1	10	<1.4	0.11
CCC[n+]1ccc(Nc2ccc(NC(=O)c3ccc(Nc4cc[n+](CCC)c5ccccc45)cc3N)cc2N)cc1.[I-].[I-]	15	<1.4	0.63
CC[n+]1ccc(Nc2ccc(NC(=O)CCCCCC(=O)Nc3ccc(Nc4cc[n+](CC)cc4)cc3)cc2)cc1.[O-][Cl+3]([O-])([O-])[O-].[O-][Cl+3]([O-])([O-])[O-]	20	<1.4	0.69
CC[n+]1ccc(Nc2ccc(NC(=O)CCCCCCC(=O)Nc3ccc(Nc4cc[n+](CC)cc4)cc3)cc2)cc1.[Br-].[Br-]	10	<1.4	0.83
CCCCCC[n+]1cccc2cc(NC(=O)c3ccc(C(=O)Nc4ccc5c(ccc[n+]5CCCCCC)c4)cc3)ccc21.Cc1ccc(S(=O)(=O)[O-])cc1.Cc1ccc(S(=O)(=O)[O-])cc1	27	<1.4	1.03
C[n+]1cccc2cc(NC(=O)Cc3ccc(CC(=O)Nc4ccc5c(ccc[n+]5C)c4)cc3)ccc21.Cc1ccc(S(=O)(=O)[O-])cc1.Cc1ccc(S(=O)(=O)[O-])cc1			0.07
CC(=NNC(=N)N)c1ccc(NC(=O)c2ccc(C(=O)Nc3ccc(Nc4cc[n+](C)cc4)cc3)cc2)cc1.Cc1ccc(S(=O)(=O)O)cc1.Cc1ccc(S(=O)(=O)[O-])cc1			-0.15
CCC[n+]1cccc(NC(=O)c2ccc(NC(=O)c3ccc(C(=O)Nc4ccc[n+](CCC)c4)cc3)cc2)c1.Cc1ccc(S(=O)(=O)[O-])cc1.Cc1ccc(S(=O)(=O)[O-])cc1	15	<1.4	0.65
CC[n+]1ccccc1NC(=O)c1ccc(NC(=O)c2ccc(C(=O)Nc3ccc(C(=O)Nc4cccc[n+]4CC)cc3)cc2)cc1.Cc1ccc(S(=O)(=O)[O-])cc1.Cc1ccc(S(=O)(=O)[O-])cc1	13	<1.4	0.57
CCCC[n+]1cccc2cc(NC(=O)c3ccc(NC(=O)c4ccc5c(ccc[n+]5CCCC)c4)cc3)ccc21.Cc1ccc(S(=O)(=O)[O-])cc1.Cc1ccc(S(=O)(=O)[O-])cc1	200	<1.4	0.59
